# Literature values, collected in patent publication US10441597B2, “Ciclesonide for the treatment of airway disease in horses” (Boehringer Ingelheim Vetmedica GmbH, priority 2012, dated 2019).
# Read-outs that look alike come from different tables or passages of the source.
# Columns and labels:
# [1] = test system: cortisol levels; conditions: horses; after aerosol administration; cited from earlier work
# [2] = test system: cortisol levels; conditions: humans; after aerosol administration/inhalation; cited from earlier work
smiles,measurement,setting,value
C[C@@H]1C[C@H]2[C@@H]3C[C@H](F)C4=CC(=O)C=C[C@]4(C)[C@@]3(F)[C@@H](O)C[C@]2(C)[C@@]1(O)C(=O)SCF [fluticasone],Measured cortisol levels,[1],significant suppression
same,Measured cortisol levels,[2],significant suppression
